Series [1] is described as follows: Aggregation / solubility at 1 mM. It counts as physicochemical. Conditions: summary calls it solubility at 1mM. In a few lines:
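Solubility and aggregation of compounds were assessed experimentally at 1 mM. Lipophilicity was determined as octanol/water partition coefficient, logP(oct/wat).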

Series [2] in a line: Lipophilicity of peptides, logP(oct/wat). Format: physicochemical. In a few lines:
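Shake-flask partition between n-octanol and phosphate buffer, each phase pre-saturated with the other; peptides dissolved in buffer, partitioned at several octanol:water ratios, shaken 1 h at room temperature. After equilibration both phases assayed for peptide; logP = log(octanol/water concentration ratio).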

Series [3] concerns the target EB3 interactions with IP3R3-GFP (Homo sapiens, UniProt Q9UPY8). Put plainly: Competitive binding: inhibition of EB3 interaction with IP3R3-GFP in vitro. Format: biochemical. Conditions: 250 nM. From the text:
We tested the efficacy of twenty-three compounds in inhibiting EB3 interactions with IP3R3-GFP via an in vitro approach developed by us[12],[13]. […] Guided by NMR studies, we predicted the binding pose of 109 to EB3 via AutoDock Vina[13],[24],[25].

The nature of series [4]: Stability of selected EB3 inhibitors in human blood plasma. It counts as in vitro ADME. On the procedure:
Supplementary Table 3. Stability of selected EB3 inhibitors in human blood plasma. The indicated inhibitors were incubated with human plasma at 37 °C and samples were taken at the indicated time points. Plasma proteins were precipitated with ice-cold perchloric acid (60%); the concentration of compounds was measured in supernatant using a liquid chromatography-tandem mass spectrometry (LC-MS/MS). See also Figures 1 and 2.

Series [5] concerns mice challenged with a PAR-1 agonist peptide. Put plainly: PAR-1 agonist peptide-induced microvascular leakage in lung. Format: in vivo, mouse. Conditions: i.v. 1 µmol/kg bw pretreatment; n = 5–7 mice per group. As to the method:
The levels of EBA extravasation in the lungs of mice challenged with PAR-1 AP and treated with these compounds were similar to those observed in control mice treated with a control PAR-1 AP ([…]-NH2), in which the positions of the first two amino acids were reversed.
PAR-1 agonist peptide-induced microvascular leakage in lung. […] Mice treated with PAR-1 control peptide ([…]-NH2) was used as negative control. For Evan’s blue albumin extravasation, Evans’s blue-labeled albumin was administered at the same time as the PAR-1 AP. Vehicle-treated mice were used as treatment control.
Evans’ blue-labeled albumin extravasation. To evaluate vascular permeability in lung tissues, mice were injected intravenously with Evans' blue-labeled albumin (25 mg/kg) 30 minutes before the collection of lung tissues. The lungs were perfused via the right ventricle with warmed phosphate-buffered saline to remove intravascular dye, and the right atrium was excised to facilitate clearance. […] The optical density of the supernatant was measured spectrophotometrically at 620 nm (Evans Blue) and 740 nm (hemoglobin correction), with the dye content normalized to the wet weight of the lungs. Corrections for hemoglobin were made as follows: Corrected absorbance (Evans blue) = Absorbance (620) - (1.426 × Absorbance (740) + 0.03). […]

For series [6], the system named is CD1 mice challenged with LD90 of LPS. Put plainly: Endotoxin-induced septic shock (LD90 LPS): survival and lung compliance. Conditions: for half maximal effective concentration (EC50) on the survival rate: LPS 30 mg/kg bw i.p. (LD90), i.v. once daily, three doses, from 20 hours after LPS, n = 10 mice per group. It counts as in vivo, mouse. As to the method: To establish the effect of VT-109 on clinically translatable outcomes, we investigated its dose-dependent effect on survival rates in a murine model of septic shock (Fig. 5a, d). In experiments involving endotoxin-induced septic shock, mice were injected intraperitoneally with a lethal dose (LD) of LPS at 30 mg/kg bw, which caused 90% mortality. The treatment cohort of mice received i.v. VT-109 at doses ranging from 1 nmol/kg to 2 µmol/kg bw, which were administered once daily for a total of three doses. All the mice also received fluid resuscitation once a day for three days.
We next examined the effect of VT-109 on lung function at 250 nmol/kg bw, the dose that produced the greatest improvement in survival rates (Fig. 5a). Lung function was assessed by measuring lung compliance in mice challenged with a lethal dose of LPS (Fig. 5c). For the control, we used a non-effective dose of VT-109 at 1 nmol/kg bw, as 90% of the mice died before reaching 48 hours post-LPS treatment if left untreated. The 1 nmol/kg bw dose was not efficacious in our mortality studies but did delay death over a 48-hour period. Static lung compliance was measured at 10 cmH2O on the expiratory limb of a P‒V loop via the Salazar–Knowles equation[49].
In the survival studies, mice received i.p. corn oil at a dose of 0.35 mL two days before the challenge. CD1 mice were injected intraperitoneally with a lethal dose 90 (LD90) of LPS (Santa Cruz Biotechnology). In most experiments, this dose was 30 mg/kg bw; however, it was adjusted for each new batch of LPS in pilot studies. In the survival study, treatment with varying doses of VT-109 (1, 10, 100, 250, 500, and 2000 nmol/kg bw) was initiated 20 hours after the LPS challenge. In the lung compliance study, a non-efficacious dose (1 nmol/kg bw) of VT-109 was used as a control, while 250 nmol/kg bw of VT-109 was used for the experimental group. Both treatments were administered intravenously 20 hours after the LPS challenge. All mice received 1 mL of prewarmed saline daily for 3 days.

Where two headings read alike, the source gives them in different places. Starred links: 1 amine or outer side, 2 acyl side, 3 side chain; linkers in the order of their positions; H or OH if unused. Positions of bridges follow the written chain, without caps; N, C: chain ends. Non-standard residues stand in square brackets, D forms with d. Residues, ends and D or L forms follow the SMILES beside them. ξ: configuration not given here. X2 = C[C@@](CCCCC=[*:3])(N[*:1])C(=O)[*:2]; Oic = O=C(O)[C@@H]1C[C@@H]2CCCC[C@@H]2N1; GABOB(3R) = O=C(C[C@@H](O)CN[*:1])[*:2]; d(tBuAla) = CC(C)(C)C[C@@H](N)C(=O)O; dVal(3-OH) = CC(C)(O)[C@@H](N)C(=O)O; tBuAla = CC(C)(C)C[C@H](N)C(=O)O; ξVal(3-OH) = CC(C)(O)C(N)C(=O)O; R5 = C=CCCC[C@@](C)(N)C(=O)O; X1 = O=C(CC(O)CN[*:1])[*:2]; 4Amb = NCc1ccc(C(=O)O)cc1

Sequence of EB3 interactions with IP3R3-GFP (Q9UPY8 whole entry): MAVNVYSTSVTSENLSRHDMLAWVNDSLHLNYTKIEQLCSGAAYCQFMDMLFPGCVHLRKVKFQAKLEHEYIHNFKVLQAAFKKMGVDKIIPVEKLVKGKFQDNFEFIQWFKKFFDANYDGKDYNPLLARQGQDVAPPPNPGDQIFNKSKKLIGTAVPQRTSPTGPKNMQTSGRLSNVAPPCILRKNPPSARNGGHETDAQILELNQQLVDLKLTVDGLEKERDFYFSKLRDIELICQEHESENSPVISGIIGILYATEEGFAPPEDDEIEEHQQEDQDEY

By inhibition is commonly meant the relative decrease from the control value, in per cent. A higher inhibition goes with a strong effect. The term amount remaining denotes the share of the starting amount still present when the sample was taken. As for `CC(C)(C)C[C@@H]1NC(=O)[C@](C)(NC(=O)c2ccc(CNC(=O)[C@H](N)C(C)(C)O)cc2)CCC/C=C\CCCC[C@@](C)(C(=O)N[C@H](CC(C)(C)C)C(=O)O)NC(=O)CC(O)CNC(=O)[C@@H]2C[C@@H]3CCCC[C@@H]3N2C1=O` (stereo partly drawn) [compound 108, (2R)-2-((8S,18R,21S,23aS,27aS,28aS,Z)-18-(4-(((R)-2-amino-3-hydroxy-3-methylbutanamido)methyl)benzamido)-4-hydroxy-8,18-dimethyl-21-neopentyl-1,6,19,22-tetraoxo-1,2,3,4,5,6,7,8,9,10,11,12,15,16,17,18,19,20,21,22,23a,24,25,26,27,27a,28,28a-octacosahydro-[1,4,7,12]tetraazacyclotetracosino[4,5-a]indole-8-carboxamido)-4,4-dimethylpentanoic acid] (H-[dVal(3-OH)][4Amb][R5][tBuAla][Oic][X1][X2][d(tBuAla)]-OH; staple (Z) 3-7), the “Aggregation at 1mM” value in series [1] is listed as “weak signal”. In addition, the logD in series [2] (shake-flask n-octanol/phosphate buffer, mutually saturated, shaken 1 hour at room temperature, read-out: Log P (Octanol/Water)) was determined as 0.46. The inhibition at 0.25 µM in series [3] is 55%. In addition, the fraction remaining at 1.5 h in series [4] (human plasma, 37 °C, 1.5 hr, perchloric acid (60%) precipitation, LC-MS/MS, read-out: compound remaining in human plasma) is 80%. In addition, the share remaining at 20 h in series [4] (human plasma, 37 °C, 20 hr, perchloric acid (60%) precipitation, LC-MS/MS, read-out: compound remaining in human plasma) amounted to 65%. In addition, in series [5], the “PAR-1-mediated capillary leakage in the lung (EBA extravasation)” value was “completely blocked”. Further, in series [6], the “half maximal effective concentration (EC50) on the survival rate” value turned out to be 308 nmol/kg bw.
With `CC(C)(C)C[C@@H]1NC(=O)C[C@@H](O)CNC(=O)[C@@H]2C[C@@H]3CCCC[C@@H]3N2C(=O)[C@H](CC(C)(C)C)NC(=O)c2ccc(cc2)CNC(=O)C(C(C)(C)O)NC(=O)[C@@H](Cc2ccccc2)NC1=O` (stereo partly drawn) [compound 109, (1^2S,1^3aS,1^7aS,3S,10S,13R,16S,20R)-13-benzyl-20-hydroxy-10-(2-hydroxypropan-2-yl)-3,16-dineopentyl-1^2,1^3,1^3a,1^4,1^5,1^6,1^7,1^7a-octahydro-1^1H-4,8,11,14,17,22-hexaaza-1(1,2)-indola-6(1,4)-benzenacyclotricosaphane-2,5,9,12,15,18,23-heptaone.] (cyclo([4Amb][tBuAla][Oic][GABOB(3R)][tBuAla][dF][ξVal(3-OH)])), the “Aggregation at 1mM” value in series [1] is “weak signal”. In series [2], this compound registered a logD of 0.73. This compound had an inhibition at 0.25 µM in series [3] of 58%. In series [4] (human, plasma), this compound yielded a share remaining at 1.5 h of 90% and a share remaining at 20 h of 91%. Besides, in series [5], the “PAR-1-mediated capillary leakage in the lung (EBA extravasation)” value is “completely blocked”. Moreover, the static lung compliance in series [6] (LD90 LPS, 250 nmol/kg bw i.v., at 10 cmH2O, n = 3‒4) came to 0.043 ± 0.001 ml/cm H₂O. Besides, in series [6], the “half maximal effective concentration (EC50) on the survival rate” value was determined as 30 nmol/kg bw. Moreover, in series [6] (efficacious doses, starting at 100 nmol/kg bw or higher), the mortality result is on record as “reduced mortality”. In addition, the “EC50 on the survival rate, equivalent for humans” value in series [6] (human equivalent of 30 nmol/kg bw) is 2.2 µg/kg bw. Also, in series [6] (lowest dose of VT-109 (1 nmol/kg)), the “mice that died within 48 hours post-LPS challenge” value was 90%.

For the origin of these results see publication PMC12627862, “Therapeutic targeting of endothelial calcium signaling accelerates the resolution of lung injury” (Signal Transduction and Targeted Therapy, 2025).
